Assay results as given in patent publication US6818657B1, “Bioprecursors of a retinoic derivative and pharmaceutical and/or cosmetic compositions” (Pierre Fabre Dermo-Cosmetique, priority 1999, dated 2004).

Tests used:
[1] = target: T1, recombinant β-glucocerebrosidase (Homo sapiens, UniProt P04062); assay: Michaelis constants (Km) and Vm of recombinant β-glucocerebrosidase for pseudosubstrates; type: biochemical; conditions: phthalate buffer pH 5.6 (0.025 M), taurocholate 5 mM, purified β-glucocerebrosidase, 30 minutes incubation
T1 construct: histidine tail (His tag) (C); made in house
T1 sequence (P04062 40-536): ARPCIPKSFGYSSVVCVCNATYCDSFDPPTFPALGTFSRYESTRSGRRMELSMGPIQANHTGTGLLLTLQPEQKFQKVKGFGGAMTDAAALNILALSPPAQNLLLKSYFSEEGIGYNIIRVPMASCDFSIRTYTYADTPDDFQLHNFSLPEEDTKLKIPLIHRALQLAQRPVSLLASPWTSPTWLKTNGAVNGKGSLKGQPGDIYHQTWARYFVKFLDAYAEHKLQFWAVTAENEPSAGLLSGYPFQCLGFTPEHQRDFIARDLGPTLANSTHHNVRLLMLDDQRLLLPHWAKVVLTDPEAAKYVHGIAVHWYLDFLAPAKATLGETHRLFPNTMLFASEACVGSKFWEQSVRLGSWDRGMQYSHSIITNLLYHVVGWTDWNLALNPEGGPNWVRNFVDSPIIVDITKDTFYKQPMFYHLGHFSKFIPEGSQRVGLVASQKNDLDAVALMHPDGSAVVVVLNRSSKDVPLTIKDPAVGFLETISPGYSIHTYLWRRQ
Procedure: After confirming that β-glucocerebrosidase is expressed in the keratinocytes, we produced a recombinant enzyme in the baculovirus system. A histidine tail was added to the COOH end of the protein to allow it to be purified by affinity column chromatography.
Thus, we were able to determine the Michaelis constants (Km) and the Vm values of the recombinant β-glucocerebrosidase in particular for the retinoic acid-arbutin glucoconjugate. The kinetics measurements are carried out in a phthalate buffer at pH 5.6 (0.025 M) containing taurocholate (5 mM), purified β-glucocerebrosidase and the test conjugate at various concentrations. The incubation lasts 30 minutes and the amount of hydroquinone-retinoic acid conjugate released is assayed by HPLC. The table below gives the results obtained. […] As regards their rates of hydrolysis, these are lower and thus allow effects to be obtained over time.

[2] = Distribution in the stratum corneum after topical application; type: in vivo

Cc1cc(=O)oc2cc(O[C@@H]3O[C@H](CO)[C@@H](O)[C@H](O)[C@H]3O)ccc12 [4-Methylumbelliferyl-glucopyranoside, 4-methyl-umbelliferyl-β-D-glucopyranoside]
Km [1]: 2800 ± 700 µM
Vm weighted by the amount of soluble proteins [1]: 4000 ± 1000 nmol/h/mg

CC1=C(/C=C/C(C)=C/C=C/C(C)=C/C(=O)O)C(C)(C)CCC1 [retinoic acid]
location in the stratum corneum after topical application ([2]; in vivo): accumulate in the upper layers of the stratum corneum after topical application and are removed by desquamation

Cc1c(C)c2c(c(C)c1O)CC[C@@](C)(CCC[C@H](C)CCC[C@H](C)CCCC(C)C)O2 [vitamin E (α-tocopherol), α-tocopherol]
location in the stratum corneum after topical application ([2]; topical application, same excipient): accumulate in the upper layers of the stratum corneum after topical application and are removed by desquamation

Cc1cc(O[C@@H]2O[C@H](CO)[C@@H](O)[C@H](O)[C@H]2O)cc2c1O[C@](C)(CCC[C@H](C)CCC[C@H](C)CCCC(C)C)CC2 [δ-Tocopheryl-glucopyranoside]
Vm weighted by the amount of soluble proteins [1]: 453 ± 20 nmol/h/mg
Km ([1]; HPLC assay): 7 ± 1 µM
